Measured values as given in PubChem BioAssay (NCI).
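Cells were grown in 96-well plates and exposed to each compound for 48 hours at five concentrations; endpoints were interpolated linearly between bracketing concentrations, or set to the highest concentration if not reached. GI50 = concentration required for 50% inhibition of growth. The concentration for full growth arrest is given as TGI.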

Tests used:
Assay in all cases: inhibition of tumour cell growth, NCI panel, 48 h
MOLT-4 leukemia = tested on: MOLT-4 leukemia
SK-MEL-28 melanoma = tested on: SK-MEL-28 melanoma
NCI-H460 lung = tested on: NCI-H460 lung
HCC-2998 colon = tested on: HCC-2998 colon
OVCAR-4 ovarian = tested on: OVCAR-4 ovarian
EKVX NSCLC = tested on: EKVX NSCLC
M14 melanoma = tested on: M14 melanoma
T-47D breast = tested on: T-47D breast
DMS 273 small cell lung = tested on: DMS 273 small cell lung
DMS 114 small cell lung = tested on: DMS 114 small cell lung

Structure (SMILES)	GI50 (MOLT-4 leukemia) [µM]	TGI (MOLT-4 leukemia) [µM]	GI50 (SK-MEL-28 melanoma) [µM]	TGI (SK-MEL-28 melanoma) [µM]	GI50 (NCI-H460 lung) [µM]	TGI (NCI-H460 lung) [µM]	GI50 (HCC-2998 colon) [µM]	TGI (HCC-2998 colon) [µM]	GI50 (OVCAR-4 ovarian) [µM]	TGI (OVCAR-4 ovarian) [µM]	GI50 (EKVX NSCLC) [µM]	TGI (EKVX NSCLC) [µM]	GI50 (M14 melanoma) [µM]	TGI (M14 melanoma) [µM]	GI50 (T-47D breast) [µM]	TGI (T-47D breast) [µM]	TGI (DMS 273 small cell lung) [µM]	TGI (DMS 114 small cell lung) [µM]	GI50 (DMS 273 small cell lung) [µM]
COc1ccc(C(=O)COc2cccc(/C=C3\CSc4ccc(Cl)cc4C3=O)c2)cc1	2.25	5.53	15.4	29	16.2	34.9	15.5	30	11.7	28.4	15.3	52	13.4	31.6	5.4	28.9	–	–	–
C1=C(c2ccccc2)C(c2ccc(OCCN3CCCCC3)cc2)Oc2ccccc21 (stereo unspecified)	2.37	5.84	1.18	2.54	1.94	3.72	1.72	3.38	2.37	7.09	1.54	3.35	1.73	3.38	1.04	2.78	–	–	–
Cc1cc(N(CCC#N)CCC#N)ccc1N=Nc1cccc(Cl)c1	–	–	–	> 100	–	> 100	–	–	–	> 100	–	> 100	–	> 100	–	–	> 100	> 100	–
O=C(NNS(=O)(=O)c1ccc(F)cc1)c1cccnc1Nc1ccc(Cl)cc1Cl	22.9	> 100	89.2	> 100	31.4	> 100	30	> 100	38	> 100	29.5	> 100	46.5	> 100	18.7	98.1	–	–	–
CCCCN(CCCC)C(=O)C(=O)C(C)C(=O)CC (stereo unspecified)	–	> 100	–	> 100	–	> 100	–	> 100	–	> 100	–	–	–	> 100	–	–	> 100	–	–
O=C(O)c1cc(Cc2ccc(O)c(C(=O)O)c2)ccc1O (tested in a mixture with another compound)	2.66	> 100	10.1	26.8	3.53	17.4	1.9	3.73	6.08	29.2	4.82	18	5.28	21.8	2.67	13.2	–	–	–
N[C@@H]1CCCC[C@@H]1N.O=C([O-])CN(CP(=O)([O-])[O-])CP(=O)([O-])[O-].[Pt+2]	82.5	> 100	> 100	> 100	> 100	> 100	> 100	> 100	> 100	> 100	–	–	> 100	> 100	–	–	> 100	–	> 100
COC(=O)C1(C2CC/C(C)=C/CC/C(C)=C/CC[C@@]3(C)O[C@@H]3C2)CC1 (stereo partly specified)	29.3	> 100	> 100	> 100	35.5	> 100	–	> 20.8	> 100	> 100	> 100	> 100	37.5	> 72.2	> 93	> 100	–	–	–
CC(=O)OC1CCC2(C)C(=CCC3C4CCC5(OC6CC(C)CN(C(C)=O)C6C5C)C(C)=C4C(=O)C32)C1 (stereo unspecified)	–	23.6	–	> 100	–	35.1	–	28.8	–	61.4	–	27.5	–	28.9	–	49	–	–	–
Cc1ccc(C2C3=C(N=c4s/c(=C/c5ccc(Br)cc5)c(=O)n42)c2ccc4ccccc4c2OCC3)cc1 (stereo unspecified)	> 100	> 100	> 100	> 100	> 100	> 100	> 100	> 100	> 100	> 100	> 100	> 100	> 100	> 100	> 100	> 100	–	–	–
Oc1c(I)cc(-c2nc3ccccc3s2)cc1CN(Cc1ccccn1)Cc1ccccn1	0.327	> 100	0.411	43	0.327	5.94	0.43	43.9	0.231	5.58	0.321	> 100	0.357	13.1	0.666	83.3	–	–	–
COc1ccc(/C=C(/C)[N+](=O)[O-])cc1	–	5.34	–	8.14	–	5.22	–	3.43	–	10.6	–	4.91	–	7.92	–	> 100	–	–	–
NC(=S)N/N=C\c1nccc2c(N)cccc12	0.235	> 100	1.16	> 100	0.303	2.04	0.374	> 100	0.414	> 100	0.803	> 100	0.153	0.317	0.454	> 100	–	–	–
